pIC50: −log10 of the molar value.
Target: T1, human Cav2.2 (Homo sapiens, UniProt Q00975)
T1 construct: cells endogenously expressing human Cav2.2; endogenous in cells; host or cells: IMR32 cells
Assay: Calcium flux (FLIPR, Calcium 4 dye) in IMR32 cells endogenously expressing human Cav2.2
Assay type: cell-based
Conditions: 60 minute pre-incubation, 2 μM nifedipine to block L-type channels, depolarized with 80 mM KCl, 5 mM CaCl2, average of n≥2 runs unless marked *
Protocol: Compounds were tested for effect on calcium flux in cells endogenously expressing human Cav2.2. Specifically, IMR32 cells endogenously expressing human Cav2.2 were assayed for Ca^2+ influx using a no-wash calcium indicator dye (Calcium 4 dye: Molecular Probes) and FLIPR technology (Lubin, M L; et al. Assay and Drug Development Technologies, 2006, 4(6), 689-694). The IMR32 cells were maintained in MEM media containing 10% (v/v) FBS, 1% (v/v) antibiotic/antimitotic, 1% (v/v) sodium pyruvate and 1% (v/v) MEM NEAA. Following dissociation in 0.05% (v/v) trypsin/EDTA, cells were seeded into black 1×96-well plates (Corning Cellbind) at a density of 1−1.2×10^5 cells/well and incubated in the maintenance media above for 48 hours at 37° C. Immediately prior to performing the assay the media was removed and cells were loaded for 1.5 hours with 1× Calcium 4 dye prepared in HBSS (137 mM NaCl, 5.4 mM KCl, 0.25 mM Na2HPO4, 0.44 mM KH2PO4, 1.3 mM CaCl2, 1 mM MgSO4, 4.2 mM NaHCO3) containing HEPES pH 7.4 at room temperature. After dye loading and a subsequent 60 minute pre-incubation with compounds (full log dilutions from 10 μM to 0.1 nM) in the presence of 1.3 mM CaCl2 and 2 μM nifedipine to block endogenous L-type channels, the external Ca^2+ concentration was increased to 5 mM CaCl2 and the cells concomitantly depolarized with 80 mM KCl to assay channel activity.
To determine the IC50 values, the percent inhibition of the compound at each concentration was determined relative to the activity in the absence of inhibitor, and data was fitted using non-linear regression sigmoidal dose response curve analysis with GraphPad Prism®. Unless otherwise indicated (*), the reported values are average values from at least two runs (i.e., n≧2).

T1 sequence (Q00975 whole entry): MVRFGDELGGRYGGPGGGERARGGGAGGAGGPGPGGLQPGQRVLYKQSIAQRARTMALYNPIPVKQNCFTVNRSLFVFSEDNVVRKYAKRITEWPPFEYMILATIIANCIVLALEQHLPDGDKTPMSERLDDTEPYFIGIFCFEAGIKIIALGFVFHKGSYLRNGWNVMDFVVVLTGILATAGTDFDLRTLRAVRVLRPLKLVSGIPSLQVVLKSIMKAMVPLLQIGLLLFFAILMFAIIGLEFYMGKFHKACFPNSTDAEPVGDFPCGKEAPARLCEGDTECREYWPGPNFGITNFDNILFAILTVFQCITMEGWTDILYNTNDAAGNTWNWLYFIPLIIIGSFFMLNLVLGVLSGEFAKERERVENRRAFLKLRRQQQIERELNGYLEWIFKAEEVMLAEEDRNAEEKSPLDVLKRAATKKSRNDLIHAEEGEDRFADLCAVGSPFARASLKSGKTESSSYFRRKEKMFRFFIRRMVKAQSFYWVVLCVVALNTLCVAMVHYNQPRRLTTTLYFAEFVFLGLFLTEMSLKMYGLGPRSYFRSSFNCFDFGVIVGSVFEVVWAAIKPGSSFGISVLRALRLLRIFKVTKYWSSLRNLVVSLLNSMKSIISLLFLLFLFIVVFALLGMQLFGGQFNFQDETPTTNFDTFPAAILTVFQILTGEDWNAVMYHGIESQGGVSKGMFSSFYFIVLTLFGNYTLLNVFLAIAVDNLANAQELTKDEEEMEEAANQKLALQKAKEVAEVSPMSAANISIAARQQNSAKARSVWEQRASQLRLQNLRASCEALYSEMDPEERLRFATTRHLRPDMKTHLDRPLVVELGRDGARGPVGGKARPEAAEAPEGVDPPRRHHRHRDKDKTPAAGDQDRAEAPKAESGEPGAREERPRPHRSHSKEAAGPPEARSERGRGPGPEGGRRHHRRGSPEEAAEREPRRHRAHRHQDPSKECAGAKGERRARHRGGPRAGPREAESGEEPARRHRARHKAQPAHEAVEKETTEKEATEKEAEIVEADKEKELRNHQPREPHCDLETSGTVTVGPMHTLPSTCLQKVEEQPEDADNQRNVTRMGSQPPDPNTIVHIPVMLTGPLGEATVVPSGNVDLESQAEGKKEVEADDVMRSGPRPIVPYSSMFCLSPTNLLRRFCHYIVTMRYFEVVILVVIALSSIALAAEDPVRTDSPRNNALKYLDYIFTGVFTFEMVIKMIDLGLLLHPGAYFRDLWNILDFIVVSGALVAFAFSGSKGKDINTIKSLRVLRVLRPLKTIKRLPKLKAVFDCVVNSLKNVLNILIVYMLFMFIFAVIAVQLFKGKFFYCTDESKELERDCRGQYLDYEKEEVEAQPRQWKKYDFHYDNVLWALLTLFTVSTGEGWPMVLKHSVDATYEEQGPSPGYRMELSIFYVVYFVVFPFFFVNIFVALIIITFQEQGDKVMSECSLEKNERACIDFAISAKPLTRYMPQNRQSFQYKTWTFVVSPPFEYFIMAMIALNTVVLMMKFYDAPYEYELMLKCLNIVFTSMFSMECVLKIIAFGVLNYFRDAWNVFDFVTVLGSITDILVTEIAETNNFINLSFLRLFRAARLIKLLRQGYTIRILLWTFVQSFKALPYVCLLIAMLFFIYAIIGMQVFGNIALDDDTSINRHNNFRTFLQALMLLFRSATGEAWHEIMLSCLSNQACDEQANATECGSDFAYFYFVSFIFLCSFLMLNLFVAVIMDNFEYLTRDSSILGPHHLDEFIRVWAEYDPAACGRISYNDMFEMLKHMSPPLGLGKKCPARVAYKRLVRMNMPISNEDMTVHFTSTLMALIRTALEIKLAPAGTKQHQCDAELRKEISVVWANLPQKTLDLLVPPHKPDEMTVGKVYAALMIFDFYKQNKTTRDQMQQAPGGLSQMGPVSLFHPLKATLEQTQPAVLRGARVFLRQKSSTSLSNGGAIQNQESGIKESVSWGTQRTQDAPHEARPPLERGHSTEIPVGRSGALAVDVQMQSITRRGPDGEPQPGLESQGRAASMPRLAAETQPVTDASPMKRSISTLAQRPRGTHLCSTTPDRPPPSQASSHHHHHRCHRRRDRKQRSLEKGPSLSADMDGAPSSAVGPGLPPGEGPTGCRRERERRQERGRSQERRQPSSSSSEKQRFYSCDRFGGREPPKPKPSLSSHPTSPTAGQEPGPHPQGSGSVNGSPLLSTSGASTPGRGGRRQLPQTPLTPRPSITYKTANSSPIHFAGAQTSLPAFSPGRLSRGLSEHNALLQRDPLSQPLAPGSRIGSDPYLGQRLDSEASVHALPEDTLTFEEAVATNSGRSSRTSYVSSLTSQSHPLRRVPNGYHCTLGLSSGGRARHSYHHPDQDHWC
T1 sequence (P54284 whole entry partner): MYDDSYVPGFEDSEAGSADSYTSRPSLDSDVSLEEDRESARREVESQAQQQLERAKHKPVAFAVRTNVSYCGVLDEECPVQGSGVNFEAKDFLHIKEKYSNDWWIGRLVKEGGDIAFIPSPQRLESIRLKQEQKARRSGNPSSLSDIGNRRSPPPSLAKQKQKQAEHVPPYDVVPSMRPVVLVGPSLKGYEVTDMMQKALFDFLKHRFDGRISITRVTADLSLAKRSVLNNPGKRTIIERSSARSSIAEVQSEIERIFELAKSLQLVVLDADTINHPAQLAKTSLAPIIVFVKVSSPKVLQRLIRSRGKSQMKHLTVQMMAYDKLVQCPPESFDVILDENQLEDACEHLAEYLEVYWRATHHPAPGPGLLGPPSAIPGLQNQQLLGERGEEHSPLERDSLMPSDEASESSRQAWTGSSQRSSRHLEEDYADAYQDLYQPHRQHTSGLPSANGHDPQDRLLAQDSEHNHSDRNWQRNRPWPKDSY
T1 sequence (P54289 25-956 partner limits assumed): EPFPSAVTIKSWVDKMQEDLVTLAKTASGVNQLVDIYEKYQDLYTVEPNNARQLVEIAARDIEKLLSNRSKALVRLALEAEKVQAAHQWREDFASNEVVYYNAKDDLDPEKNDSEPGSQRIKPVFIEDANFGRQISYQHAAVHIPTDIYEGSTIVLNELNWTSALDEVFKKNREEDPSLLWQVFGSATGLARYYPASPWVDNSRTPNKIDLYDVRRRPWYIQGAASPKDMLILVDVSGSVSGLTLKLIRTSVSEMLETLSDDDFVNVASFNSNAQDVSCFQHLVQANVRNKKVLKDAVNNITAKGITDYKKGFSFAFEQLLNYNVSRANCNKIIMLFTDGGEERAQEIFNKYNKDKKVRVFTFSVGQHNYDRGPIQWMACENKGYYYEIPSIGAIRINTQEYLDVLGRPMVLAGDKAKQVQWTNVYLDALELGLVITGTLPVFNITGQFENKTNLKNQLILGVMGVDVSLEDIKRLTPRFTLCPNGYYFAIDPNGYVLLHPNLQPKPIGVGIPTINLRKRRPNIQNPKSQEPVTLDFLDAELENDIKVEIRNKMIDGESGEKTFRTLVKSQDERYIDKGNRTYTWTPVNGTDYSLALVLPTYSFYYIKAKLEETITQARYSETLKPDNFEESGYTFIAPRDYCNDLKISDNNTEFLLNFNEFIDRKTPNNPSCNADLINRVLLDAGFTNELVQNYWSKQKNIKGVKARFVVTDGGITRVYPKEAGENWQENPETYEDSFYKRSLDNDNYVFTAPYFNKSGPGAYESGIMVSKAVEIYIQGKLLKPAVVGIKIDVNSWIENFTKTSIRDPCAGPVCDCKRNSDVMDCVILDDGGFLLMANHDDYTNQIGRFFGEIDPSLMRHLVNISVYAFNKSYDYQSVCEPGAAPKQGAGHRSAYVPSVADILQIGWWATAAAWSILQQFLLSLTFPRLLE
T1 sequence (P54289 957-1103 partner limits assumed): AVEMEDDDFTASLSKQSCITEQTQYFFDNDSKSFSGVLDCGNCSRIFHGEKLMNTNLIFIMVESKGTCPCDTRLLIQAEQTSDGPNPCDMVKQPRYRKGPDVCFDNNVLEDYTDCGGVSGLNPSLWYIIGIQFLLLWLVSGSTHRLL

| pIC50 | Structure (SMILES) |
| --- | --- |
| 6.70 | O=S(=O)(c1ccc(C(F)(F)F)cc1)N1CCCN2C[C@H](Oc3cnc(C4CC4)cn3)C[C@H]2C1 [Example 2, (8R,9aS)-8-[(5-cyclopropylpyrazin-2-yl)oxy]-2-{[4-(trifluoromethyl)phenyl]sulfonyl}octahydro-1H-pyrrolo[1,2-a][1,4]diazepane] |
| 5.29 | O=C1CCN(c2ccc(C(F)(F)F)cn2)C[C@H]2C[C@H](Oc3cnc(C4CC4)cn3)CN12 [Example 46, (8S,9aR)-8-[(5-cyclopropylpyrazin-2-yl)oxy]-2-[5-(trifluoromethyl)pyridin-2-yl]octahydro-5H-pyrrolo[1,2-a][1,4]diazepin-5-one] |
| 5.43 | O=C(c1ccc(C(F)(F)F)cc1)N1CCC(=O)N2C[C@H](Oc3cnc(C4CC4)cn3)C[C@H]2C1 [Example 33, (8R,9aS)-8-[(5-cyclopropylpyrazin-2-yl)oxy]-2-[4-(trifluoromethyl)benzoyl]octahydro-5H-pyrrolo[1,2-a][1,4]diazepin-5-one] |
| 5.53 | O=C1[C@H]2C[C@@H](Oc3cnc(C4CC4)cn3)CN2CCCN1Cc1ccc(C(F)(F)F)cc1 [Example 24, (8R,9aR)-8-[(5-cyclopropylpyrazin-2-yl)oxy]-2-[4-(trifluoromethyl)benzyl]octahydro-1H-pyrrolo[1,2-a][1,4]diazepin-1-one] |
| 5.55 | O=C(c1ccc(OC(F)(F)F)cc1)N1CCC(=O)N2C[C@H](Oc3cnc(C4CC4)cn3)C[C@H]2C1 [Example 38, (8R,9aS)-8-[(5-cyclopropylpyrazin-2-yl)oxy]-2-[4-(trifluoromethoxy)benzoyl]octahydro-5H-pyrrolo[1,2-a][1,4]diazepin-5-one] |
| 5.75 | O=C1[C@@H](Oc2ccc(C(F)(F)F)cn2)C[C@H]2CN(S(=O)(=O)c3ccc(C(F)(F)F)cc3)CCCN12 [Example 5, (8S,9aS)-2-{[4-(trifluoromethyl)phenyl]sulfonyl}-8-{[5-(trifluoromethyl)pyridin-2-yl]oxy}octahydro-7H-pyrrolo[1,2-a][1,4]diazepin-7-one] |
| 5.61 | O=C1CCN(c2ncc(C(F)(F)F)cc2F)C[C@@H]2C[C@@H](Oc3cnc(C4CC4)cn3)CN12 [Example 50, (8R,9aS)-8-[(5-cyclopropylpyrazin-2-yl)oxy]-2-[3-fluoro-5-(trifluoromethyl)pyridin-2-yl]octahydro-5H-pyrrolo[1,2-a][1,4]diazepin-5-one] |
| 5.92 | O=C1[C@@H]2C[C@@H](Oc3cnc(C4CC4)cn3)CN2CCCN1Cc1ccc(C(F)(F)F)c(F)c1 [Example 25, (8R,9aS)-8-[(5-cyclopropylpyrazin-2-yl)oxy]-2-[3-fluoro-4-(trifluoromethyl)benzyl]octahydro-1H-pyrrolo[1,2-a][1,4]diazepin-1-one] |
| 5.49 | O=C1CCN(Cc2ccc(OC(F)(F)F)cc2)C[C@H]2C[C@H](Oc3cnc(C4CC4)cn3)CN12 [Example 62, (8S,9aR)-8-[(5-cyclopropylpyrazin-2-yl)oxy]-2-[4-(trifluoromethoxy)benzyl]octahydro-5H-pyrrolo[1,2-a][1,4]diazepin-5-one] |
| 5.03 | O=C(c1ccc(C(F)(F)F)cn1)N1CCCN2C[C@H](Oc3cnc(C4CC4)cn3)C[C@H]2C1 [Example 11, [(8R,9aS)-8-[(5-cyclopropylpyrazin-2-yl)oxy]hexahydro-1H-pyrrolo[1,2-a][1,4]diazepin-2(3H)-yl][5-(trifluoromethyl)pyridin-2-yl]methanone] |
| 5.87 | O=C(c1cccc(OC(F)(F)F)c1)N1CCCN2C[C@H](Oc3cnc(C4CC4)cn3)C[C@H]2C1 [Example 9, [(8R,9aS)-8-[(5-cyclopropylpyrazin-2-yl)oxy]hexahydro-1H-pyrrolo[1,2-a][1,4]diazepin-2(3H)-yl][3-(trifluoromethoxy)phenyl]methanone] |
| 5.90 | O=C1CCN(S(=O)(=O)c2ccc(C(F)(F)F)cc2)C[C@@H]2C[C@@H](Oc3ccc(C(F)(F)F)cn3)CN12 [Example 52, (8R,9aS)-2-{[4-(trifluoromethyl)phenyl]sulfonyl}-8-{[5-(trifluoromethyl)pyridin-2-yl]oxy}octahydro-5H-pyrrolo[1,2-a][1,4]diazepin-5-one] |
| 5.21 | O=C(c1cccc(C(F)(F)F)n1)N1CCCN2C[C@H](Oc3cnc(C4CC4)cn3)C[C@H]2C1 [Example 12, [(8R,9aS)-8-[(5-cyclopropylpyrazin-2-yl)oxy]hexahydro-1H-pyrrolo[1,2-a][1,4]diazepin-2(3H)-yl][6-(trifluoromethyl)pyridin-2-yl]methanone] |
| 5.67 | O=C1CCN(c2ncc(C(F)(F)F)cc2Cl)C[C@@H]2C[C@@H](Oc3cnc(C4CC4)cn3)CN12 [Example 49, (8R,9aS)-2-[3-chloro-5-(trifluoromethyl)pyridin-2-yl]-8-[(5-cyclopropylpyrazin-2-yl)oxy]octahydro-5H-pyrrolo[1,2-a][1,4]diazepin-5-one] |
| 5.46 | CNC(C(=O)N1CCC(=O)N2C[C@H](Oc3cnc(C4CC4)cn3)C[C@H]2C1)c1cccc(C(F)(F)F)c1 (stereo partly drawn) [Example 41, (8R,9aS)-8-[(5-cyclopropylpyrazin-2-yl)oxy]-2-{(methylamino)[3-(trifluoromethyl)phenyl]acetyl}octahydro-5H-pyrrolo[1,2-a][1,4]diazepin-5-one] |
| 5.75 | O=C(c1ccc(F)c(C(F)(F)F)c1)N1CCC(=O)N2C[C@H](Oc3cnc(C4CC4)cn3)C[C@H]2C1 [Example 36, (8R,9aS)-8-[(5-cyclopropylpyrazin-2-yl)oxy]-2-[4-fluoro-3-(trifluoromethyl)benzoyl]octahydro-5H-pyrrolo[1,2-a][1,4]diazepin-5-one] |
| 5.74 | O=C1CCN(S(=O)(=O)c2cccc(C(F)(F)F)c2)C[C@@H]2C[C@@H](Oc3cnc(C4CC4)cn3)CN12 [Example 28, (8R,9aS)-8-[(5-cyclopropylpyrazin-2-yl)oxy]-2-{[3-(trifluoromethyl)phenyl]sulfonyl}octahydro-5H-pyrrolo[1,2-a][1,4]diazepin-5-one] |
| 6.22 | O=C1CCN(S(=O)(=O)c2cccc(C(F)(F)F)c2)C[C@@H]2C[C@@H](Oc3ccc(C(F)(F)F)cn3)CN12 [Example 31, (8R,9aS)-2-{[3-(trifluoromethyl)phenyl]sulfonyl}-8-{[5-(trifluoromethyl)pyridin-2-yl]oxy}octahydro-5H-pyrrolo[1,2-a][1,4]diazepin-5-one] |
| 6.04 | O=C1[C@H](Oc2ccc(C(F)(F)F)cn2)C[C@H]2CN(S(=O)(=O)c3ccc(C(F)(F)F)cc3)CCCN12 [Example 6, (8R,9aS)-2-{[4-(trifluoromethyl)phenyl]sulfonyl}-8-{[5-(trifluoromethyl)pyridin-2-yl]oxy}octahydro-7H-pyrrolo[1,2-a][1,4]diazepin-7-one] |
| 6.21 | O=C1CCN(Cc2cccc(C(F)(F)F)c2)C[C@@H]2C[C@@H](Oc3ccc(C(F)(F)F)cn3)CN12 [Example 45, (8R,9aS)-2-[3-(trifluoromethyl)benzyl]-8-{[5-(trifluoromethyl)pyridin-2-yl]oxy}octahydro-5H-pyrrolo[1,2-a][1,4]diazepin-5-one] |
| 4.73 | O=C(c1cccc(C(F)(F)F)c1)N1CCC(=O)N2C[C@@H](Oc3cnc(C4CC4)cn3)C[C@H]2C1 [Example 60, (8S,9aS)-8-[(5-cyclopropylpyrazin-2-yl)oxy]-2-[3-(trifluoromethyl)benzoyl]octahydro-5H-pyrrolo[1,2-a][1,4]diazepin-5-one] |
| 5.92 | O=C(c1ccc(C(F)(F)F)cc1F)N1CCCN2C[C@H](Oc3cnc(C4CC4)cn3)C[C@H]2C1 [Example 18, [(8R,9aS)-8-[(5-cyclopropylpyrazin-2-yl)oxy]hexahydro-1H-pyrrolo[1,2-a][1,4]diazepin-2(3H)-yl][2-fluoro-4-(trifluoromethyl)phenyl]methanone] |
| 5.76 | O=C1[C@@H]2C[C@@H](Oc3cnc(C4CC4)cn3)CN2CCCN1Cc1cccc(C(F)(F)F)c1 [Example 22, (8R,9aS)-8-[(5-cyclopropylpyrazin-2-yl)oxy]-2-[3-(trifluoromethyl)benzyl]octahydro-1H-pyrrolo[1,2-a][1,4]diazepin-1-one] |
| 5.46 | O=C1[C@H](Oc2cnc(C3CC3)cn2)C[C@H]2CN(c3ccc(C(F)(F)F)cn3)CCCN12 [Example 21, (8R,9aS)-8-[(5-cyclopropylpyrazin-2-yl)oxy]-2-[5-(trifluoromethyl)pyridin-2-yl]octahydro-7H-pyrrolo[1,2-a][1,4]diazepin-7-one] |
| 5.43 | O=C1CCN(S(=O)(=O)c2ccc(C(F)(F)F)cc2)C[C@H]2C[C@@H](Oc3cnc(C4CC4)cn3)CN12 [Example 58, (8R,9aR)-8-[(5-cyclopropylpyrazin-2-yl)oxy]-2-{[4-(trifluoromethyl)phenyl]sulfonyl}octahydro-5H-pyrrolo[1,2-a][1,4]diazepin-5-one] |
